Data taken from a melting point compilation (Tetko et al.; mined from patent text by program, amines drawn as free bases though some values may be those of a salt).

Compound | melting point
O=C(CNC(=O)c1ccc([N+](=O)[O-])cc1[N+](=O)[O-])OCc1ccccc1 | 116 to 118 °C
CC(C)OC(=O)Nc1cc(C2CC2)on1 | 64.5 to 65.5 °C
C=CCNc1cc(C)nc2cn[nH]c12 | 172 to 174 °C
N#CC(=Cc1ccncc1)c1cccnc1 | 150 to 152 °C
O=C(NCCCCCO)c1cc([N+](=O)[O-])cc([N+](=O)[O-])c1Cl | 100 to 103 °C
Cc1nnc(C)n1NC(=N)c1ccc(Cl)cc1 | 303 to 306 °C
Cc1cc2c(c(Cc3c[nH]cn3)c1)OC(C)(C)OC2 | 152 to 155 °C
C(=C\c1cc(/C=C/c2c[nH]c3ccccc23)n[nH]1)/c1cccc(OCc2ccccn2)c1 | 198 to 201 °C
CC(C)(C)c1cc(C(=O)Nc2ccc(C(=O)O)cc2)cc(C(C)(C)C)c1O | 160 to 162 °C
O=CNC1Cc2cc(Br)ccc2N(C=O)C1 (stereo not given) | 174 to 178 °C
CCOC(=O)COCC(=O)c1ccccc1 | 33 to 35 °C
CSc1sc(C(=O)N2CCN(C)CC2)c2c1C(=O)CC(C)(C)C2 | 123 to 125 °C
O=C(Nc1ccc(Oc2ccnc(NC3CCC3)n2)c2ccccc12)c1cc(F)cc(N2CCOCC2)c1 | 110 to 112 °C
CCC1(C)C(=O)N(C(C)C)CC(C)(C)N1OC(C)(C)C#N (stereo not given) | 106 to 108 °C
CC1(C)C(=O)c2c(cc(OCC(=O)O)c(Cl)c2Cl)C1c1ccccc1 (stereo not given) | 163 to 164 °C
O=C1c2ccc(O)cc2OCN1CCO[N+](=O)[O-] | 131 to 133 °C
Cc1cc(-c2cccc(Cl)c2)nn2c(C)nnc12 | 194 to 196 °C
CSc1cccc(-c2ccccc2N)c1 | 114 to 115 °C
COC(=O)CC(c1ccc(F)cc1)C(C#N)C(=O)OC (stereo not given) | 80.2 °C
CCc1cc2c(s1)N=C(NNC(=O)NC)CN=C2c1ccccc1Cl | 213 to 215 °C
CCCNc1nc(C#N)c(C#N)nc1-c1cccc(Cl)c1 | 120 to 121 °C
Cc1nccn1-c1cccc(OS(N)(=O)=O)c1 | 197 to 200 °C
CCOC(=O)CCc1cn(Cc2ccc(OCc3cn4c(-c5ccccc5)cccc4n3)cc2)nc1OCC | 104 to 105 °C
Cc1nc2ccc(N)cc2c(=O)n1C1CCC(=O)NC1=O (stereo not given) | 314 to 316 °C
CN1C(=O)CC[C@]2(C)c3ccc(-c4ccc(NC(=O)C(C)(C)C)cc4)cc3CC[C@@H]12 | > 265 °C

Compound | melting point
CC(C)c1nc(CCCO)n(C)c1Sc1cc(Cl)cc(Cl)c1 | 124 to 125 °C
COc1ccc2ccccc2c1C1OC(=O)NC1=O (stereo not given) | 199 to 201 °C
CC(CNc1cccc(-c2ccnc3c(C(=O)c4cccs4)cnn23)c1)c1ccccc1 (stereo not given) | 108 to 110 °C
CS(=O)c1cc(Br)nc(Br)c1 (stereo not given) | 98 to 100 °C
COc1cc(O)c(C)c(C(=O)O)c1Br | 79 to 80 °C
COc1ccc2c(c1)CCN1CCC(Nc3ccc(NC(C)=O)cc3)CC21 (stereo not given) | 219 to 221 °C
CC(C)(C)NCC(O)COc1cc(N)ccc1-c1ccc(=O)[nH]n1 (stereo not given) | 198 to 202 °C
O=C1OC(=O)c2cc3cccc([N+](=O)[O-])c3c3cccc1c23 | 246 °C
CCC(CC)Nc1c(NCc2ccc(OC)c(OC)c2)c(=O)c1=O | 223 to 224 °C
Cc1oc(-c2ccccc2)nc1COc1ccc(COc2nn(Cc3ccccc3)cc2CCC(=O)O)cc1 | 125 to 126 °C
O=C(Nc1ccc(Cl)c(-c2ccnc3c(C(=O)c4cccs4)cnn23)c1)c1ccccc1 | 194 to 195 °C
CCCC1(CCC)c2cc(-c3nc4cc(C)ccc4o3)ccc2-c2cc(OC)c(-c3nc4cc(C)ccc4o3)cc21 | 240 to 248 °C
O=C(Nc1ccc(-n2nc(C(F)(F)F)cc2C(F)(F)F)cc1)c1ccc[nH]1 | > 240 °C
CN(c1ccc(O)cc1)c1nc2cc(Cl)ccc2s1 | 238 to 240 °C
Cc1cc2c(s1)c(=O)c(C(=O)O)cn2C | 305 to 315 °C
COc1ccccc1C1(O)C(O)CC(c2ccccc2)(c2ccccc2)C2CN(C(=O)Cc3ccccc3O)CC21 (stereo not given) | 188 to 190 °C
COc1cc(F)c(C(O)CNCc2csc(NC(C)=O)n2)cc1OC (stereo not given) | 173 to 175 °C
N#Cc1cc(Cn2cncn2)cc(-c2ccc(O)cc2)c1 | 186 to 187 °C
CC(=O)Oc1c(C)c2c(-c3ccc(C(C)C)cc3)coc2c2ccccc12 | 118 to 119 °C
CCC(C#N)c1ccc(Cl)c2nc3n(c12)CCCN3c1ccc(Cl)cc1Cl (stereo not given) | 220 to 221 °C
Cc1ccc2cccc(OCc3c(C)ccc(N(C)C(=O)CN4C(=O)c5ccccc5C4=O)c3C)c2n1 | 102 to 110 °C
Cc1oc2cc(C=O)ccc2c1C | 73 to 74 °C
CC(O)(CN)c1ccc(Oc2ccc3c(c2)S(=O)(=O)NC2CCCN32)cc1 (stereo not given) | 76 to 78 °C
Cc1cccc(N2CCN(Cc3c[nH]c4ncccc34)CC2)c1 | 156 to 158 °C
O=[N+]([O-])c1cccc(C(O)CN2CCNC2=S)c1 (stereo not given) | 163 °C

Compound | melting point
Cc1c(C)c2c(c(C)c1NC(=O)CC(C)(C)C)C(O)(C1CCCCC1)C(C)(C)O2 (stereo not given) | 170 to 171 °C
COC1=CC(=O)N(Cc2ncn(C(c3ccccc3)(c3ccccc3)c3ccccc3)c2C)CC1 | 181 to 184 °C
C[C@@H](CO)NS(=O)(=O)c1ccccc1[N+](=O)[O-] | 82 to 83 °C
CCOC(=O)C(CC)=C(C)NC(=O)Nc1cc(OC(C)C)c(Cl)cc1F | 112 to 114 °C
CC1CC(=O)NN=C1c1ccc(NC(=O)C(C)OS(C)(=O)=O)cc1 (stereo not given) | 110 to 112 °C
O=C(O)CCCCCNC(=O)OCc1ccccc1 | 54 to 55.5 °C
CCOc1ccc2[nH]cc(CC(C)(N)C(=O)OC)c2c1 (racemic) | 165 to 166 °C
CN1C(=O)CN=C(c2ccccc2F)c2cc(NC(=O)N(CCOC(C)(C)C)Cc3ccccc3)ccc21 | 82 to 86 °C
Nc1cccc2c1CCN(C(=O)C(F)(F)F)CC2 | 85 to 88 °C
CCCC1(CCC)c2cc(-c3ccc(Br)s3)ccc2-c2ccc(-c3ccc(Br)s3)cc21 | 160 to 165 °C
OCc1ccc2c(c1)Nc1nccnc1S2 | 187 to 189 °C
COc1ccc(S(=O)(=O)N(Cc2cccnc2)c2c(C)cc(-c3cccs3)cc2C(=O)O)cc1 | 191 °C
COc1ccc(Oc2ccc3nc(COc4ccc(CC5SC(=O)NC5=O)cc4)n(C)c3c2)cc1 (stereo not given) | 122 to 126 °C
CC1(C)CC(Br)c2cc(C#N)ccc2O1 (stereo not given) | 94 to 95 °C
COCc1cc(N)no1 | 49 to 52 °C
Nc1nc(O)nc(Cl)n1 | 300 °C
CCOc1ccc(C(=O)Nc2ccccc2NC(=O)c2cccc(C(N)=NO)c2)cc1 | 180 to 182 °C
COc1ccc(OC)c(C(=O)Cl)c1 | 36 to 38 °C
N#CN=C(NCc1ccccn1)Nc1cccc(-c2cccc(S(=O)(=O)NC(CC(=O)O)c3ccccc3)c2)c1 (stereo not given) | 90 °C
Cn1nc(-c2ccccc2)c2ccc(Cl)nc21 | 94 to 96 °C
COc1cncnc1N1CCN(CCCc2c[nH]c3ccc([N+](=O)[O-])cc23)CC1 | 163 to 166 °C
Cc1nc(N2CCc3ccccc3CC2)c(C#N)c(=O)n1C | 155 to 158 °C
Cc1c(CCOCCO[N+](=O)[O-])cc(-c2ccc(S(C)(=O)=O)cc2)n1-c1ccccc1 | 78 to 80 °C
CC(C)C(=O)N1N=Cc2ccccc2C1C#N (stereo not given) | 144 to 146 °C
O=C(NCCc1ccccn1)c1ccc(S(=O)(=O)Nc2cccc3c(Cl)c[nH]c23)cc1 | 220 to 222 °C

Compound | melting point
CC(C)(C)Nc1ccncc1NC(=S)NC1CCCCC1 | 216 to 218 °C
O=[N+]([O-])c1ccc(C23CCN(CC2)CC3)cc1 | 130 to 135 °C
C=CCOC(=O)C1=C2c3ccccc3CC[C@@H]2[C@@H]2[C@@H]([C@@H](C)O)C(=O)N12 | 133 to 134 °C
O=C(OC1CCN(Cc2ccc(Cl)cc2)CC1)c1ccc(Cl)cc1 | 67 to 69 °C
CCOC(=O)c1cc(-c2ccccc2)oc1-c1ccc(OC)c(OC)c1 | 68 °C
Cc1cc(OC(=O)C(C)(C)C)cc(C)c1O | 92 to 94 °C
S=C=Nc1ccc(-c2nc(-c3cccnc3)no2)cc1 | 121 to 123 °C
COc1ccc(-c2[nH]nc3c2C(=O)c2c(NC(=O)Cc4ccc(Cl)c(Cl)c4)cccc2-3)cc1 | 299 °C
CC(C)(C)C(O)Cn1c(=O)c(=NNc2ccccc2)c(=O)n(-c2ccccc2F)c2ccccc21 (stereo not given) | 217 to 218 °C
COC(=O)CCN(CC(=O)O)CC(=O)O | 141 °C
CCOC(=O)C1=C(N(C)C)N=C(C)C(C(=O)OCC)C1c1ccccc1C (stereo not given) | 88 °C
CC(COC(=O)NC(=O)C(c1ccccc1)c1ccccc1)c1ccccc1 (racemic) | 131 °C
CCC(c1oc2ccccc2c(=O)c1-c1cccc(F)c1)n1nc(-c2ccc3c(C)n[nH]c3c2)c2c(N)ncnc21 (stereo not given) | 268 to 270 °C
CCc1cccc(C)c1CNc1nc(OC)cc(NC)c1[N+](=O)[O-] | 166 to 167 °C
COC(=O)c1cc2ccc(OC)cc2c2c1C=CC(c1ccc(OC)cc1)(c1ccc(OC)cc1)O2 | 162 to 164 °C
CC(C)n1cc(-c2ccc3nnn(Cc4ccc5ncccc5c4)c3n2)cn1 | 126 to 128 °C
Nc1cccc(CC(=O)O)c1 | 116 to 121 °C
COC(=O)c1nc(-c2ccccc2)n2c1CN=C(c1ccccc1F)c1cc(Cl)ccc1-2 | 208 to 209 °C
Cc1nc(-c2cccc(C(=O)O)c2)sc1C(=O)O | 295 to 296 °C
O=C(NCCc1ccccc1)c1ccc(N2CCOCC2)nc1 | 163 to 165 °C
O=C1COC(COc2ccccc2Cc2cccs2)CN1Cc1ccccc1 (stereo not given) | 97 to 99 °C
CCCCCCCCCCNC(=O)Nc1ccc(N(C)C)cc1C(=O)NCC1CCN(C(c2ccccc2)c2ccccc2)CC1 | 145 to 147 °C
CCC(C)Cn1c(=O)n(C)c(=O)c2c1nc(C)n2C(=O)OC (stereo not given) | 110 to 112 °C
CCn1ncc2c3noc(-c4ccccc4C)c3cnc21 | 168 to 170 °C
O=C(O)Cc1c(-c2ccccc2)nn(-c2ccc(Cl)cc2)c1-c1ccccc1 | 193 to 194 °C
